Biological target: Trm6p/Trm61p complex (yeast tRNA m^1A58 Mtase) (Saccharomyces cerevisiae, UniProt P46959)
Experiment: biochemical

Sequence of Trm6p/Trm61p complex (yeast tRNA m^1A58 Mtase) (P46959 whole entry): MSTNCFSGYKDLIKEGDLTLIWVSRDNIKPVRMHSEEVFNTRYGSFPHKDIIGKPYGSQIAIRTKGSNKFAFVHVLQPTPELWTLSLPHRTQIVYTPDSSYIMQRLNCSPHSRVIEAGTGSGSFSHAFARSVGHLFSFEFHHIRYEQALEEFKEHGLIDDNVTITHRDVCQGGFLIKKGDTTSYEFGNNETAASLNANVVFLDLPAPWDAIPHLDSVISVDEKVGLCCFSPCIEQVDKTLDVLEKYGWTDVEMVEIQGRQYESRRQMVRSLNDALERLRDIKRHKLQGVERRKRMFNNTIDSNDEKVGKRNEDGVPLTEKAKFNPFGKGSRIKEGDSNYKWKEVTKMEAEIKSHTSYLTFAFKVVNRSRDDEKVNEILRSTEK
Sequence of Trm6p/Trm61p complex (yeast tRNA m^1A58 Mtase) (P41814 whole entry partner): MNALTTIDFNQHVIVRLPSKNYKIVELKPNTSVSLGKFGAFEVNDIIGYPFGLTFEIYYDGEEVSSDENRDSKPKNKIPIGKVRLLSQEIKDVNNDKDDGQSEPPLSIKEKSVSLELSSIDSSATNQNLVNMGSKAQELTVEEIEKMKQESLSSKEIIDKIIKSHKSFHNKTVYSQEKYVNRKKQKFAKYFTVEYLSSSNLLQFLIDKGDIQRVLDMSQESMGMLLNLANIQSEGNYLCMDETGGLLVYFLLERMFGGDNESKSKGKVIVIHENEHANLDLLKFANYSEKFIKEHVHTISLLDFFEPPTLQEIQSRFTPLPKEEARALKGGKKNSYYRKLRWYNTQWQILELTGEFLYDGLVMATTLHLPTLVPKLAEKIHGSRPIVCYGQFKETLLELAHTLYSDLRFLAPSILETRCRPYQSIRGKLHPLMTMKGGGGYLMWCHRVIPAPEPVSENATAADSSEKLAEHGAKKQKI

## C[S+](CC[C@H](N)C(=O)O)C[C@H]1O[C@@H](n2cnc3c(N)ncnc32)[C@H](O)[C@@H]1O (stereo partly shown) [AdoMet]
  Kd: 376 ± 73 µM
